For 26 molecules, IC50 results are on record in US8742110B2, “Spiroxazolidinone compounds” (Merck Sharp & Dohme Corp., priority 2010, dated 2014).

Where a name gives a salt, the structure may show the parent alone.

Sequence of SSTR5 (P35346 whole entry): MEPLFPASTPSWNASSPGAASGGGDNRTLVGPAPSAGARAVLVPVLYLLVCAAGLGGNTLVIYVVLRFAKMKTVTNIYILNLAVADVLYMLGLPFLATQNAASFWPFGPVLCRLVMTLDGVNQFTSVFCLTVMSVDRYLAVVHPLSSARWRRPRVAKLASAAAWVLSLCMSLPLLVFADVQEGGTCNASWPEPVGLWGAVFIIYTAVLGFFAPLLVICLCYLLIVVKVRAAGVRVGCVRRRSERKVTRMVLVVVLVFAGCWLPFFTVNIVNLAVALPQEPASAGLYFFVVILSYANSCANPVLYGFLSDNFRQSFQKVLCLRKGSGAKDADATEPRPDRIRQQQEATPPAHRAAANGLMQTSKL

In this experiment the target is SSTR5 (Homo sapiens (Human), UniProt P35346). Kind of experiment: SSTR5 binding assay. Particulars: CHO-K1 membranes expressing cloned human SSTR5. As to the method:
The receptor-ligand binding assays of all 5 subtype of SSTRs were performed with membranes isolated from Chinese hamster ovary (CHO)-K1 cells stably expressing the cloned human somatostatin receptors in 96-well format as previous reported.
The stable cell lines for SSTR1-SSTR5 were developed by stably transfecting with DNA for all five SSTRs using Lipofectamine. […] The assay buffer consisted of 50 mM TrisHCl (pH 7.8) with 1 mM EGTA, […] MgCl2, leupeptin (10 μg/mL), pepstatin (10 μg/mL), bacitracin (200 μg/mL), and aprotinin (0.5 μg/mL). CHO-K1 cell membranes, radiolabeled somatostatin, and unlabeled test compounds were resuspended or diluted in this assay buffer. Unlabeled test compounds were examined over a range of concentrations from 0.01 nM to 10,000 nM.
Compounds exemplified were tested in the SSTR5 binding assay.
Consider `Cn1cc(-c2ccc(F)c(F)c2F)c(CN2CCC3(CC2)CN(c2ccc(C(=O)O)cc2)C(=O)O3)n1` [Example 2-1, 4-(8-{[1-Methyl-4-(2,3,4-trifluorophenyl)-1H-pyrazol-3-yl]methyl}-2-oxo-1-oxa-3,8-diazaspiro[4.5]dec-3-yl)benzoic acid, TFA salt], for which the half-maximal inhibitory concentration (IC50) was 2950 nM.
The value for `Cn1cc(-c2cc(F)c(F)cc2F)c(CN2CCC3(CC2)CN(c2ccc(C(=O)O)cc2)C(=O)O3)n1` [Example 2-2, 4-(8-{[1-Methyl-4-(2,4,5-trifluorophenyl)-1H-pyrazol-3-yl]methyl}-2-oxo-1-oxa-3,8-diazaspiro[4.5]dec-3-yl)benzoic acid, TFA salt] was 4320 nM; that for `O=C(O)c1ccc(N2CC3(CCN(Cc4nn(Cc5ccc(Cl)cc5)cc4-c4ccc(F)c(F)c4F)CC3)OC2=O)cc1` [Example 2-3, 4-(8-{[1-(4-Chlorobenzyl)-4-(2,3,4-trifluorophenyl)-1H-pyrazol-3-yl]methyl}-2-oxo-1-oxa-3,8-diazaspiro[4.5]dec-3-yl)benzoic acid, TFA salt] was 89.3 nM; that for `O=C(O)c1ccc(N2CC3(CCN(Cc4nn(Cc5ccc(Cl)cc5)cc4-c4cc(F)c(F)cc4F)CC3)OC2=O)cc1` [Example 2-4, 4-(8-{[1-(4-Chlorobenzyl)-4-(2,4,5-trifluorophenyl)-1H-pyrazol-3-yl]methyl}-2-oxo-1-oxa-3,8-diazaspiro[4.5]dec-3-yl)benzoic acid, TFA salt] was 112 nM.
Take `COc1c(-c2cn(C(C)C)nc2CN2CCC3(CC2)CN(c2ccc(C(=O)O)cc2)C(=O)O3)ccc(F)c1F` [Example 2-5, 4-(8-{[4-(3,4-Difluoro-2-methoxyphenyl)-1-(propan-2-yl)-1H-pyrazol-3-yl]methyl}-2-oxo-1-oxa-3,8-diazaspiro[4.5]dec-3-yl)benzoic acid, TFA salt]: the IC50 was 191 nM.
Regarding `CCCn1cc(-c2ccc(F)c(F)c2F)c(CN2CCC3(CC2)CN(c2ccc(C(=O)O)cc2)C(=O)O3)n1` [Example 2-6, 4-(2-Oxo-8-{[1-propyl-4-(2,3,4-trifluorophenyl)-1H-pyrazol-3-yl]methyl}-1-oxa-3,8-diazaspiro[4.5]dec-3-yl)benzoic acid, TFA salt], the IC50 stood at 281 nM.
In turn, `O=C(O)c1ccc(N2CC3(CCN(Cc4cnn(-c5ccccc5)c4-c4cc(F)c(F)cc4F)CC3)OC2=O)cc1` [Example 2-7, 4-(2-Oxo-8-{[1-phenyl-5-(2,4,5-trifluorophenyl)-1H-pyrazol-4-yl]methyl}-1-oxa-3,8-diazaspiro[4.5]dec-3-yl)benzoic acid, TFA salt] registered an IC50 of 1.83 nM.
Take `O=C(O)c1ccc(N2CC3(CCN(Cc4cnn(C5CCCCC5)c4-c4cc(F)c(F)cc4F)CC3)OC2=O)cc1` [Example 2-8, 4-(8-{[1-Cyclohexyl-5-(2,4,5-trifluorophenyl)-1H-pyrazol-4-yl]methyl}-2-oxo-1-oxa-3,8-diazaspiro[4.5]dec-3-yl)benzoic acid, TFA salt]: the concentration for half-maximal inhibition (IC50) worked out at 10.4 nM.
Molecule `CC(C)(C)n1cc(CN2CC3(C2)CN(c2ccc(C(=O)O)cc2)C(=O)O3)c(-c2ccc(F)c(F)c2F)n1` [Example 2-9, 4-(2-{[1-tert-Butyl-3-(2,3,4-trifluorophenyl)-1H-pyrazol-4-yl]methyl}-6-oxo-5-oxa-2,7-diazaspiro[3.4]oct-7-yl)benzoic acid, TFA salt] registered a 50% inhibitory concentration (IC50) of 14.9 nM.
For the molecule `CC(C)(C)n1cc(CN2CCCC3(CC2)CN(c2ccc(C(=O)O)cc2)C(=O)O3)c(-c2ccc(F)c(F)c2F)n1` (centres unmarked) [Example 2-11, 4-(8-{[1-tert-Butyl-3-(2,3,4-trifluorophenyl)-1H-pyrazol-4-yl]methyl}-2-oxo-1-oxa-3,8-diazaspiro[4.6]undec-3-yl)benzoic acid, TFA salt], the IC50 came to 207 nM.
Take `CCOc1cc(CN2CCCC3(CC2)CN(c2ccc(C(=O)O)cc2)C(=O)O3)cc(OCC)c1-c1ccc(F)cc1` (centres unmarked) [Example 2-12, 4-{8-[(2,6-Diethoxy-4′-fluorobiphenyl-4-yl)methyl]-2-oxo-1-oxa-3,8-diazaspiro[4.6]undec-3-yl}benzoic acid, TFA salt]: the IC50 was determined as 4.93 nM.
Consider `CCOc1ccc(-c2ccc(F)c(F)c2)c(CN2CCCC3(CC2)CN(c2ccc(C(=O)O)cc2)C(=O)O3)c1` (centres unmarked) [Example 2-13, 4-{8-[(4-Ethoxy-3′,4′-difluorobiphenyl-2-yl)methyl]-2-oxo-1-oxa-3,8-diazaspiro[4.6]undec-3-yl}benzoic acid, TFA salt], for which the half-inhibitory concentration (IC50) is 26.1 nM.
`COc1ccc(-c2nn(C(C)(C)C)cc2CN2CCCC3(CC2)CN(c2ccc(C(=O)O)cc2)C(=O)O3)cc1` (centres unmarked) [Example 2-14, 4-(8-{[1-tert-Butyl-3-(4-methoxyphenyl)-1H-pyrazol-4-yl]methyl}-2-oxo-1-oxa-3,8-diazaspiro[4.6]undec-3-yl)benzoic acid, TFA salt] gave an IC50 of 26.8 nM.
`COc1ccc(-c2nn(-c3ccccc3)cc2CN2CCCC3(CC2)CN(c2ccc(C(=O)O)cc2)C(=O)O3)cc1` (centres unmarked) [Example 2-15, 4-(8-{[3-(4-Methoxyphenyl)-1-phenyl-1H-pyrazol-4-yl]methyl}-2-oxo-1-oxa-3,8-diazaspiro[4.6]undec-3-yl)benzoic acid, TFA salt] gave a half-inhibitory concentration (IC50) of 58.7 nM.
Consider `CCOc1cc(CN2CCC3(C2)CN(c2ccc(C(=O)O)cc2)C(=O)O3)cc(OCC)c1-c1ccc(F)cc1` (centres unmarked) [Example 2-16, 4-{7-[(2,6-Diethoxy-4′-fluorobiphenyl-4-yl)methyl]-2-oxo-1-oxa-3,7-diazaspiro[4.4]non-3-yl}benzoic acid, TFA salt], for which the IC50 came to 5.63 nM.
Molecule `CC(C)(C)n1cc(CN2CCC3(C2)CN(c2ccc(C(=O)O)cc2)C(=O)O3)c(-c2ccc(F)c(F)c2F)n1` (centres unmarked) [Example 2-17, 4-(7-{[1-tert-Butyl-3-(2,3,4-trifluorophenyl)-1H-pyrazol-4-yl]methyl}-2-oxo-1-oxa-3,7-diazaspiro[4.4]non-3-yl)benzoic acid, TFA salt] registered a half-maximal inhibitory concentration (IC50) of 32.7 nM.
The molecule `CCOc1cc(CN2CCC3(CC2)CN(c2cncc(O)c2)C(=O)O3)cc(OCC)c1-c1ccc(F)cc1` [Example 3-2, 8-[(2,6-Diethoxy-4′-fluorobiphenyl-4-yl)methyl]-3-(5-hydroxypyridin-3-yl)-1-oxa-3,8-diazaspiro[4.5]decan-2-one, TFA salt] gave a half-inhibitory concentration (IC50) of 1.46 nM.
`CCOc1cc(CN2CCC3(CC2)CN(c2ccccc2C(=O)O)C(=O)O3)cc(OCC)c1-c1ccc(F)cc1` [Example 3-3, 2-{8-[(2,6-Diethoxy-4′-fluorobiphenyl-4-yl)methyl]-2-oxo-1-oxa-3,8-diazaspiro[4.5]dec-3-yl}benzoic acid, TFA salt] yielded an IC50 of 229 nM.
As to `CCOc1cc(CN2CCC3(CC2)CN(c2ccc(C(=O)O)nc2)C(=O)O3)cc(OCC)c1-c1ccc(F)cc1` [Example 3-4, 5-{8-[(2,6-Diethoxy-4′-fluorobiphenyl-4-yl)methyl]-2-oxo-1-oxa-3,8-diazaspiro[4.5]dec-3-yl}pyridine-2-carboxylic acid, TFA salt], the half-inhibitory concentration (IC50) was 1.4 nM.
Molecule `CCOc1cc(CN2CCC3(CC2)CN(c2cncc(C(=O)O)c2)C(=O)O3)cc(OCC)c1-c1ccc(F)cc1` [Example 3-5, 5-{8-[(2,6-Diethoxy-4′-fluorobiphenyl-4-yl)methyl]-2-oxo-1-oxa-3,8-diazaspiro[4.5]dec-3-yl}pyridine-3-carboxylic acid, TFA salt] showed an IC50 of 2.12 nM.
In the case of `CCOc1cc(CN2CCC3(CC2)CN(c2ccc(C(C)(C)C(=O)O)cc2)C(=O)O3)cc(OCC)c1-c1ccc(F)cc1` [Example 3-6, 2-(4-{8-[(2,6-Diethoxy-4′-fluorobiphenyl-4-yl)methyl]-2-oxo-1-oxa-3,8-diazaspiro[4.5]dec-3-yl}phenyl)-2-methylpropanoic acid, TFA salt] it was 9.47 nM.
In the case of `CCOc1cc(CN2CCC3(CC2)CN(c2ccc(-c4nn[nH]n4)cc2OC)C(=O)O3)cc(OCC)c1-c1ccc(F)cc1` [Example 3-7, 8-[(2,6-Diethoxy-4′-fluorobiphenyl-4-yl)methyl]-3-[2-methoxy-4-(2H-tetrazol-5-yl)phenyl]-1-oxa-3,8-diazaspiro[4.5]decan-2-one, TFA salt], the half-maximal inhibitory concentration (IC50) turned out to be 7.06 nM.
Turning to `CCOc1cc(CN2CCC3(CC2)CN(c2ccc(C(=O)O)c(C)c2)C(=O)O3)cc(OCC)c1-c1ccc(F)cc1` [Example 3-8, 4-{8-[(2,6-Diethoxy-4′-fluorobiphenyl-4-yl)methyl]-2-oxo-1-oxa-3,8-diazaspiro[4.5]dec-3-yl}-2-methylbenzoic acid, TFA salt], the IC50 came to 1.42 nM.
In the case of `CCOc1cc(CN2CCC3(CC2)CN(c2ccc(C(=O)O)c(Cl)c2)C(=O)O3)cc(OCC)c1-c1ccc(F)cc1` [Example 3-9, 2-Chloro-4-{8-[(2,6-diethoxy-4′-fluorobiphenyl-4-yl)methyl]-2-oxo-1-oxa-3,8-diazaspiro[4.5]dec-3-yl}benzoic acid, TFA salt] it was 1.21 nM.
`CCOc1cc(CN2CCC3(CC2)CN(c2ccc(C4(C(=O)O)CC4)cc2)C(=O)O3)cc(OCC)c1-c1ccc(F)cc1` [Example 3-10, 1-(4-{8-[(2,6-Diethoxy-4′-fluorobiphenyl-4-yl)methyl]-2-oxo-1-oxa-3,8-diazaspiro[4.5]dec-3-yl}phenyl)cyclopropanecarboxylic acid, TFA salt] displayed a 50% inhibitory concentration (IC50) of 8.41 nM.
On to `CCOc1cc(CN2CCC3(CC2)CN(c2ccc(C(=O)O)cn2)C(=O)O3)cc(OCC)c1-c1ccc(F)cc1` [Example 3-11, 6-{8-[(2,6-Diethoxy-4′-fluorobiphenyl-4-yl)methyl]-2-oxo-1-oxa-3,8-diazaspiro[4.5]dec-3-yl}pyridine-3-carboxylic acid, TFA salt], for which the IC50 came to 0.941 nM.

In general, IC50 refers to the concentration needed to halve the response being measured. Read a low IC50 as higher potency.
